Data set [1] is described as follows: Metabolic stability of the compound in human liver microsomes assessed as parent compound remaining at 1 uM measured for 60 mins in presence of NADPH regenerating system by LC/MS analysis. The data set is classed as ADME, Microsome. The settings on record: read-out: Stability.
The nature of data set [2]: Metabolic stability of the compound in CD-1 mouse liver microsomes assessed as parent compound remaining at 1 uM measured after 60 mins in presence of NADPH regenerating system by LC/MS analysis. Type of data set: ADME, Microsome. The settings on record: read-out: Stability.

Turning to `O=C(O)CNC(=O)c1ccc(S(=O)(=O)N2CCC(c3ccc(Cl)cc3)CC2)cn1`, the remaining at 1 h, 1 µM in data set [1] and in data set [2] was greater than 90% in each case.
